Experimental data published in patent US20050282743A1, “Molecular interactions in cells” (Arbor Vita Corporation, priority 2001, published 2005).
Ends that are not written are not given here. Peptide text beside a SMILES is read from it. * marks the point of attachment. Biotin = O=C1N[C@H]2[C@H](CS[C@H]2CCCCC(=O)*)N1

Columns and labels:
Assay in all cases: G' assay (10 uM PL peptide), results of TABLE 7 and TABLE 12
Format in all cases: binding
[1] = biological target: T1, PDZ protein (GST-PDZ fusion) (Homo sapiens, UniProt Q9NRD5); settings: PDZ PICK1, PDZ Domain 1
T1 construct: made in house; host or cells: E. coli (DH5alpha, BL21 or JM109)
Outline: (§1)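 Biotinylated PL peptides at 10 uM (vs 20 uM in G^0 assay) bound to GST-PDZ fusions; PDZ protein at 5 ug/ml unless another concentration listed. Bound peptide read as A450 nm, classified 0–5 (0 = A450 0; 5 = A450 >4 repeated).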

[2] = biological target: T2, PDZ protein (GST-PDZ fusion) (Homo sapiens, UniProt Q9Y6N9); settings: PDZ PDZ-73, PDZ Domain 2
T2 construct: made in house; host or cells: E. coli (DH5alpha, BL21 or JM109)
Outline: as §1

[3] = biological target: T3, PDZ protein (GST-PDZ fusion) (Homo sapiens, UniProt Q9UQ26); settings: PDZ KIAA0751(L), PDZ Domain 1
T3 construct: made in house; host or cells: E. coli (DH5alpha, BL21 or JM109)
T3 sequence (Q9UQ26 1-1411): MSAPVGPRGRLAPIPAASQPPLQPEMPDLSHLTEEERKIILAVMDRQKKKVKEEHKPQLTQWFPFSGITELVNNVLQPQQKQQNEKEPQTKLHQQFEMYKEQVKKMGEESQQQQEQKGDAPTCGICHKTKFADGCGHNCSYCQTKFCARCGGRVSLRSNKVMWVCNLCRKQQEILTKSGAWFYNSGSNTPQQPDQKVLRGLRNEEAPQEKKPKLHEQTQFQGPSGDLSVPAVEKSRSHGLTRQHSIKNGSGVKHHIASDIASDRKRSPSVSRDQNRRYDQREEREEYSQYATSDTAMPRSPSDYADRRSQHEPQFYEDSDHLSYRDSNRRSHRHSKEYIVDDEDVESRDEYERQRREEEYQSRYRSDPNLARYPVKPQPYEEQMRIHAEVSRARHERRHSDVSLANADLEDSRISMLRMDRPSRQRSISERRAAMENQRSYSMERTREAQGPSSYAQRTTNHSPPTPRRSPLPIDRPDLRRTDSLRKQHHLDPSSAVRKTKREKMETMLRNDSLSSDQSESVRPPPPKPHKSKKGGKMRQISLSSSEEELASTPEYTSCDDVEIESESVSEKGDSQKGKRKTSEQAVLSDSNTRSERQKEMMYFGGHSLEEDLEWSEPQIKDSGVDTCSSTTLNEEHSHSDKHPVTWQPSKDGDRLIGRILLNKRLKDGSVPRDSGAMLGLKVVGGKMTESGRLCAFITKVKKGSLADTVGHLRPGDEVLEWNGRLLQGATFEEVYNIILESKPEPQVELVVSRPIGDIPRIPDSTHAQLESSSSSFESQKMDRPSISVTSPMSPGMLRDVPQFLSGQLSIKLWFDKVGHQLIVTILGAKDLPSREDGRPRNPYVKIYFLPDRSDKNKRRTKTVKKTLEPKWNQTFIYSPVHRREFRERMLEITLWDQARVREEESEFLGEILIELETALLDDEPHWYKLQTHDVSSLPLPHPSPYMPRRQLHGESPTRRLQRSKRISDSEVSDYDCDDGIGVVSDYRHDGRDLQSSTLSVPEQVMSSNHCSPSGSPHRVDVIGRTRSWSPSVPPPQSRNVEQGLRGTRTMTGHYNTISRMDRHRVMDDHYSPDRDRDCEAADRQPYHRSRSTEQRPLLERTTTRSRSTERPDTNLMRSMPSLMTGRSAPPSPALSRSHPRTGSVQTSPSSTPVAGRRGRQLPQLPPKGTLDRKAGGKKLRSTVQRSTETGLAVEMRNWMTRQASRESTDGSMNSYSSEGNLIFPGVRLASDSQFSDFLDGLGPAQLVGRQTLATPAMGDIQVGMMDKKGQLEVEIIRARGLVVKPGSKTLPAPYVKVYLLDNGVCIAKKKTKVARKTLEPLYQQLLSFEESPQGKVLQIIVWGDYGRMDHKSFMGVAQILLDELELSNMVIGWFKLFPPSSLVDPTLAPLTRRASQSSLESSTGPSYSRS
Outline: as §1

[4] = biological target: T4, PDZ protein (GST-PDZ fusion) (Homo sapiens, UniProt P53667); settings: PDZ LIMK1, PDZ Domain 1
T4 construct: made in house; host or cells: E. coli (DH5alpha, BL21 or JM109)
Outline: as §1

T2 sequence (Q9Y6N9 whole entry, the tested form may be a part): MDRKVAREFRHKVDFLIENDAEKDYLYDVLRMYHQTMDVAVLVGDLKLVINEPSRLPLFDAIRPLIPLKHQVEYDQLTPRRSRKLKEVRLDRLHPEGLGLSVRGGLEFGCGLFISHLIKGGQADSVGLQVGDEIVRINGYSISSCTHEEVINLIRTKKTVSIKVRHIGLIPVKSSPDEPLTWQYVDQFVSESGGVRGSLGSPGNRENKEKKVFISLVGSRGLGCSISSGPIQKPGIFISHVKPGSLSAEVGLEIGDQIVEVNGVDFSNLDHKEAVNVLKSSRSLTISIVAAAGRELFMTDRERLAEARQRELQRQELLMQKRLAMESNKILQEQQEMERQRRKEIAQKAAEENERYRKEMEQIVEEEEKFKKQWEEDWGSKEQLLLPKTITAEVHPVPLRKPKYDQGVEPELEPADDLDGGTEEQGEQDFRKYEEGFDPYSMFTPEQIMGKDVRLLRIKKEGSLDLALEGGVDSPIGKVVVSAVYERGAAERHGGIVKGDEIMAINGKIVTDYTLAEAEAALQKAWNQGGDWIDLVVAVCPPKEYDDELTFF
T1 sequence (Q9NRD5 whole entry, the tested form may be a part): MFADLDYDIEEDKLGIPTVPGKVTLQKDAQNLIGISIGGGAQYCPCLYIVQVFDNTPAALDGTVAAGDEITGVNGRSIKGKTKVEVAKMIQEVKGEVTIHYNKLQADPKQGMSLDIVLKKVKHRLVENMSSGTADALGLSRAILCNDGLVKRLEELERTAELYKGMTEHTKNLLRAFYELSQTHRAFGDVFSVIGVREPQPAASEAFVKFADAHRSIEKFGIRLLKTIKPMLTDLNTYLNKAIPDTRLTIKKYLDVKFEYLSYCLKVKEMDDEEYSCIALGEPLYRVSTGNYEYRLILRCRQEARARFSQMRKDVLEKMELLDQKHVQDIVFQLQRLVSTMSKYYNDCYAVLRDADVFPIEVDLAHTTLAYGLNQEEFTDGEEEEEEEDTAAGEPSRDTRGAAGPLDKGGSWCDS
T4 sequence (P53667 whole entry, the tested form may be a part): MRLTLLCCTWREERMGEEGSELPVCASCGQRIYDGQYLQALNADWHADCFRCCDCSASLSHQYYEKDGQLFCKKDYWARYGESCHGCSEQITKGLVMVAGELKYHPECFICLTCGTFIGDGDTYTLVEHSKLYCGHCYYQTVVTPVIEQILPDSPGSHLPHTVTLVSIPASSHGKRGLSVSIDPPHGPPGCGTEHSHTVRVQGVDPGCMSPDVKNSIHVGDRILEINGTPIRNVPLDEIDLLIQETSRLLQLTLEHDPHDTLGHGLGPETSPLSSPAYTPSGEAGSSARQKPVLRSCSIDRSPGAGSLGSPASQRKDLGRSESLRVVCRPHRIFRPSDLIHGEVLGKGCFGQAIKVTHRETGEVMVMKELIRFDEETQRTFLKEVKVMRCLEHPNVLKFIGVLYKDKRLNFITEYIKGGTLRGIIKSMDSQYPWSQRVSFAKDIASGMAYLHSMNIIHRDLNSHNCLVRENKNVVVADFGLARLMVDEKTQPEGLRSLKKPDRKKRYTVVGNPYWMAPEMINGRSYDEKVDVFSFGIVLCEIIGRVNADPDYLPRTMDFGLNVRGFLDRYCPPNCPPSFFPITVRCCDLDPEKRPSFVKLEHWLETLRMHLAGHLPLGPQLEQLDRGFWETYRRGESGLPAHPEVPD

CC[C@H](C)[C@H](NC(=O)[C@H](C)NC(=O)[C@H](CC(C)C)NC(=O)[C@H](Cc1c[nH]c2ccccc12)NC(=O)[C@H](Cc1c[nH]cn1)NC(=O)[C@H](CCC(N)=O)NC(=O)[C@H](CC(C)C)NC(=O)[C@H](CCC(N)=O)NC(=O)[C@H](Cc1ccccc1)NC(=O)[C@H](CCC(N)=O)NC(=O)[C@H](CCCNC(=N)N)NC(=O)[C@@H](NC(=O)[C@H](CC(=O)O)NC(=O)[C@H](CCCNC(=N)N)NC(=O)[C@H](CCC(N)=O)NC(=O)[C@H](C)NC(=O)[C@@H](NC(=O)[C@H](CC(C)C)NC(=O)[C@H](Cc1c[nH]cn1)NC(=O)[C@H](Cc1c[nH]cn1)NC(=O)CCCC[C@@H]1SC[C@@H]2NC(=O)N[C@@H]21)C(C)C)[C@@H](C)CC)C(=O)O [noradrenaline transporter] (Biotin-HHLVAQRDIRQFQLQHWLAI-OH; C-terminus assumed)
Classification [1]: 1 (A450 nm 0-1)

CC[C@H](C)[C@H](NC(=O)CNC(=O)[C@H](CO)NC(=O)[C@H](Cc1ccccc1)NC(=O)[C@@H](NC(=O)[C@H](CS)NC(=O)CNC(=O)CNC(=O)[C@H](C)NC(=O)[C@@H]1CCCN1C(=O)[C@@H](NC(=O)[C@@H]1CCCN1C(=O)CCCC[C@@H]1SC[C@@H]2NC(=O)N[C@@H]21)[C@@H](C)CC)[C@@H](C)O)C(=O)N[C@@H](Cc1ccccc1)C(=O)N1CCC[C@H]1C(=O)N[C@H](C(=O)N[C@@H](CC(C)C)C(=O)N[C@H](C(=O)N[C@@H](CO)C(=O)N1CCC[C@H]1C(=O)N[C@@H](CC(C)C)C(=O)O)[C@@H](C)O)[C@@H](C)O [KIA 1481] (Biotin-PIPAGGCTFSGIFPTLTSPL-OH; C-terminus assumed)
Classification [2]: 1 (A450 nm 0-1)

CC[C@H](C)[C@H](NC(=O)[C@H](Cc1ccc(O)cc1)NC(=O)[C@H](CC(C)C)NC(=O)[C@H](CCC(N)=O)NC(=O)[C@H](Cc1c[nH]cn1)NC(=O)[C@H](CO)NC(=O)[C@H](C)NC(=O)[C@H](CC(C)C)NC(=O)[C@@H](NC(=O)[C@H](CC(=O)O)NC(=O)[C@H](CCSC)NC(=O)[C@H](Cc1ccccc1)NC(=O)[C@@H]1CCCN1C(=O)[C@H](CCCNC(=N)N)NC(=O)[C@@H](NC(=O)[C@H](CC(C)C)NC(=O)[C@H](CC(N)=O)NC(=O)[C@H](CC(=O)O)NC(=O)[C@@H](NC(=O)[C@H](CO)NC(=O)CCCC[C@@H]1SC[C@@H]2NC(=O)N[C@@H]21)[C@@H](C)O)C(C)C)[C@@H](C)O)C(=O)O [presenilin-2] (Biotin-STDNLVRPFMDTLASHQLYI-OH; C-terminus assumed)
Classification [3]: 1 (A450 nm 0-1)

A2AA_HUMAN (modified) (Biotin-HDFRRAFKKILARGDRKRIV; not fully specified)
Classification [3]: 3 (A450 nm 2-3)

CC(C)C[C@H](NC(=O)[C@H](Cc1c[nH]c2ccccc12)NC(=O)[C@H](Cc1c[nH]cn1)NC(=O)[C@H](CCCNC(=N)N)NC(=O)[C@H](CC(C)C)NC(=O)[C@@H](NC(=O)[C@H](Cc1ccccc1)NC(=O)[C@H](CCC(N)=O)NC(=O)[C@H](CCCNC(=N)N)NC(=O)[C@@H](NC(=O)[C@H](CCC(=O)O)NC(=O)CNC(=O)[C@H](CCCNC(=N)N)NC(=O)[C@H](CC(=O)O)NC(=O)[C@@H](NC(=O)[C@H](CC(C)C)NC(=O)[C@H](CCC(=O)O)NC(=O)[C@H](CCCNC(=N)N)NC(=O)CCCC[C@@H]1SC[C@@H]2NC(=O)N[C@@H]21)C(C)C)C(C)C)[C@@H](C)O)C(=O)N[C@@H](CCCCN)C(=O)N[C@H](C(=O)O)C(C)C [Dopamine transporter (Na+-dependent)] (Biotin-RELVDRGEVRQFTLRHWLKV-OH; C-terminus assumed)
Classification [1]: 2 (A450 nm 1-2)

CSCC[C@H](NC(=O)[C@H](C)NC(=O)[C@H](CCCNC(=N)N)NC(=O)CNC(=O)[C@@H](NC(=O)[C@H](Cc1c[nH]c2ccccc12)NC(=O)[C@H](CCCNC(=N)N)NC(=O)CNC(=O)CCCC[C@@H]1SC[C@@H]2NC(=O)N[C@@H]21)[C@@H](C)O)C(=O)N[C@@H](CO)C(=O)N[C@@H](C)C(=O)N[C@@H](Cc1c[nH]c2ccccc12)C(=O)N[C@@H](CCCCN)C(=O)N1CCC[C@H]1C(=O)N[C@H](C(=O)N[C@@H](CCCNC(=N)N)C(=O)N[C@@H](CCCNC(=N)N)C(=O)N[C@@H](CCC(=O)O)C(=O)N[C@H](C(=O)N[C@@H](CCC(=O)O)C(=O)N[C@H](C(=O)O)C(C)C)[C@@H](C)O)[C@@H](C)O [HPV E6 #35 (modified)] (Biotin-GRWTGRAMSAWKPTRRETEV-OH; C-terminus assumed)
Classification [4]: 1 (A450 nm 0-1)
Classification ([2]; PL peptide 10 uM): 2 (A450 nm 1-2)

CC[C@H](C)[C@H](NC(=O)[C@H](CCC(N)=O)NC(=O)CCCC[C@@H]1SC[C@@H]2NC(=O)N[C@@H]21)C(=O)N[C@@H](CO)C(=O)N1CCC[C@H]1C(=O)NCC(=O)NCC(=O)N[C@@H](CC(C)C)C(=O)N[C@@H](CCC(=O)O)C(=O)N1CCC[C@H]1C(=O)N1CCC[C@H]1C(=O)N[C@@H](CO)C(=O)N[C@@H](CCC(=O)O)C(=O)N[C@@H](CCCCN)C(=O)N[C@@H](Cc1c[nH]cn1)C(=O)N[C@@H](Cc1ccccc1)C(=O)N[C@@H](CCCNC(=N)N)C(=O)N[C@@H](CCC(=O)O)C(=O)N[C@H](C(=O)N[C@@H](CCC(=O)O)C(=O)N[C@H](C(=O)O)C(C)C)[C@@H](C)O [Tax]
Classification [4]: 1 (A450 nm 0-1)
